The term melting point denotes the temperature of the solid-liquid transition. For the compound `COc1ccc(-c2coc(C(N)=O)cc2=O)cc1`, the melting point fell in the range of 262 to 263 °C.
The figure for `CC(c1ccc(-c2ccccc2)c(F)c1)c1nc(CCCl)no1` (stereo not drawn) is 72 to 72.5 °C; for `O=C(CC(F)=C(F)F)NNC(=O)CC(F)=C(F)F` it is 191 to 193 °C.
With `COC(=O)C1=C(C(OC)OC)NC(C)=C(P2(=O)OCCCO2)C1c1ccccc1[N+](=O)[O-]` (stereo not drawn) the figure was 174 to 176 °C; with `CC1(C)C(=O)N(Cc2ccccc2Cl)OC1O` (stereo not drawn), 122 to 126 °C.
The figure for `COC(=O)C1CC(C#N)(c2cccc3ccccc23)CCC1=O` (stereo not drawn) is 166 to 168 °C.
On to `CCCCC1=C(C(=O)O)Nc2ccc(C(=O)O)cc2C1O` (stereo not drawn), for which the melting point is over 260 °C.
The figure for `CCCCCCC1C(=O)NC2(C(O)C3CCCCC3)C(=O)OC12C` (stereo not drawn) is 167 °C.
For the compound `N#Cc1c(Cl)c(F)cc2c(=O)c(C(=O)O)cn(C3CC3)c12`, the melting point lay in the range of 281 to 282 °C.
The figure for `O=C(O)c1cnc(-c2ccccc2)c2ccccc12` is 215 to 217 °C.
With `CCCO/N=C(\C(=O)OC)c1csc(NC(=O)CCl)n1` the figure was 86 to 87 °C; with `O=C(O)C1=Cc2cc(I)cc(I)c2OC1C(F)(F)F` (stereo not drawn), 243 to 244 °C; with `CCCc1nn(-c2ccc(C(F)(F)F)cn2)cc1CCCOc1c(C)cnn1CC(=O)O`, 145 to 146 °C.
With `COc1ccc(Nc2cc([N+](=O)[O-])ccc2C)c(C(=O)O)c1` the figure was 219 to 221 °C; with `CCOC(=O)C(C)=Cc1ccc([N+](=O)[O-])cc1`, 75 °C; with `Cc1cc(S(=O)(=O)Nc2cc(F)c(Oc3cnc4ccccc4c3)c(Cl)c2)c(Cl)cc1Cl`, 187 °C.
On to `CCOc1ccc(C2=NN(C3CCOCC3)C(=O)[C@H]3CC=CC[C@@H]23)cc1OCC` (relative stereo), for which the melting point lay within 127 to 129 °C.
Regarding `O=C(O)C(Oc1ccc(Cl)c(C(F)(F)F)c1)c1ccc(Cl)cc1` (stereo not drawn), the melting point was 132 °C.
With `CCCCCCOc1c(CBr)ccc2c(OCCCCCC)c(CBr)ccc12` the figure was 58 to 60 °C.
On to `O=C1N(Cc2ccc3c(c2)OCCO3)c2ccccc2C12COc1cc3c(cc12)CCO3` (stereo not drawn), for which the melting point was 173 to 175 °C.
With `COc1ccc(-c2cc(=O)c3cc(OCCCCCN4CCC(O)CC4)ccc3o2)cc1` the figure was 138 to 139 °C; with `CCOC(=O)N(C)c1c(OC)cc(Cc2cnc(N)nc2N)cc1OC`, 187 to 188 °C.
`COc1ccccc1-c1ccc(C(=O)N2Cc3ccc(C(=O)N(C)CC(O)CO)n3Cc3ccccc32)cc1C` (stereo not drawn) yielded a melting point of 174 to 184 °C.
The figure for `Cc1cccc(C)c1N1CC(=N)N(c2c(C)cccc2C)C1C(=O)c1ccc(Cl)cc1` (stereo not drawn) is 155 to 156 °C; for `O=C(O)c1cc2cccc(OCC3CO3)c2o1` (stereo not drawn) it is 117 to 119 °C.
Consider `Cn1cc(CC(=O)O)c2cc(-c3ccc(C(F)(F)F)cc3)ccc21`, for which the melting point lay within 167 to 168 °C.
With `O=C(C#Cc1ccc(C(=O)O)cc1)Nc1ccccc1` the figure was 271 to 272 °C; with `CCc1cccc(CC)c1NC(=O)C1c2ccccc2COc2c(C)ccc(C)c21` (stereo not drawn), 104 to 106 °C; with `COc1cc(Cc2cnc(N)nc2NO)cc(OC)c1OC`, 208 to 210 °C.
As to `CC1(C)CCC(C)(C)c2cc(C3(c4ccc(C(=O)O)cc4)OCCO3)c(OCc3ccccc3)cc21`, the melting point fell in the range of 222 to 228 °C.
With `COC[C@H](Cc1ccccc1)Nc1nc(C)nc2c1nnn2-c1ccc(C(C)C)cc1Br` the figure was 67 to 69 °C.
With `Cc1c[nH]c(C)c1CCC(=O)O` the figure was 134 to 136 °C; with `CS(=O)CCC(=N)NS(N)(=O)=O` (stereo not drawn), 141 to 144 °C.
With `CC(=O)Nn1cc(C)n(C)c1=O` the figure was 199 to 201 °C; with `COc1cccc2c(=O)cc(C3CC3C(=O)O)oc12` (stereo not drawn), 193 to 196 °C; with `Cc1nccc(N2CCN(C(=O)N3CCN(C(=O)OC(C)(C)C)CC3)CC2)n1`, 212 to 213 °C.
`N#CCCCCc1cccc2cncn12` had a melting point of 72 to 75 °C.
The figure for `CC12CC(O)CC1C1CCc3cc(O)ccc3C1C(c1ccccc1)C2` (stereo not drawn) is 241 to 247 °C; for `CC(C)(C)c1ccc(CNc2nc(Nc3cccc(C(F)(F)F)c3)nc(C(F)(F)F)n2)cc1` it is 53 to 55 °C; for `Cc1c(NCc2ccccc2)c2c(c3c1C(c1ccc(C(C)C)cc1)CO3)CCC2` (stereo not drawn) it is 95 to 96 °C.
With `CCNc1cccnc1N1CCN(C(=O)c2ccc(C(=O)NC(C)(C)CO)cn2)CC1` the figure was 128 to 130 °C; with `N#Cc1nn(-c2c(Cl)cc(C(F)(F)F)cc2Cl)c(C(=O)C(F)F)c1Cl`, 124 to 125 °C.
The figure for `CCCCCCCCCCCC1OC1C(=O)O` (stereo not drawn) is 76 to 77 °C; for `C#CCOCCn1c(CN2CCN(C)CC2)nc2cccnc21` it is 117 °C.
In turn, `COCCn1cc(-c2ccccc2)n(C(=O)c2ccccc2)c1=O` displayed a melting point of 112 to 117 °C.
The compound `CCCN(CCC)CCCC1CCN(CCNC(=O)N2c3ccccc3C(=O)Nc3cccnc32)CC1` came in with a melting point of 169 to 170 °C.
The figure for `COc1ccc2c(-c3ccccc3F)noc2c1` is 101 to 103 °C; for `O=C(NCc1ccccn1)Nc1cc(N2CCCC2=O)ccn1` it is 234 to 235 °C.
The figure for `C=C(C(=O)O)c1ccccc1OC` is 144 °C; for `CNC(=S)NS(=O)(=O)c1cc(CCNC(=O)c2cc(Cl)ccc2OC)ccc1-c1ccccn1` it is 85 to 86 °C; for `CN1CCN(C(=S)Nc2ccc3nc(C(C)(C)C)sc3c2)CC1` it is 176 to 177 °C.
The figure for `Oc1ccc(-c2nc(-c3ccc(Cl)cc3)nc(-c3ccc(O)cc3O)n2)c(O)c1` is 232 to 234 °C; for `O=C(Nc1ccc(OC(F)(F)F)cc1)NC1CCN(C(=O)c2ccncc2)CC1` it is 210 to 212 °C.
The compound `O=C(CCl)n1ccc2cc(F)ccc21` returned a melting point of 236 to 237 °C.
The compound `CC(CN1C(=O)c2ccccc2C1=O)C(=NO)n1nc(C(C)(C)C)cc1N` (stereo not drawn) came in with a melting point of 198 to 199 °C.
`C[C@H](NC(=O)OC(C)(C)C)C(=O)Oc1c[nH]c2ccccc12` displayed a melting point of 158 °C.
With `CCOC(=O)CN(C(=O)CC)c1c(SC(F)(F)F)c(C)nn1-c1c(Cl)cc(C(F)(F)F)cc1Cl` the figure was 73 to 74 °C.
Turning to `N#CC=Cc1ccc(Cl)cc1C(=O)c1ccccc1`, the melting point fell in the range of 89 to 91 °C.
Regarding `Cc1cccc(-c2nc3c(C)cccc3[nH]2)c1[N+](=O)[O-]`, the melting point lay in the range of 186 to 188 °C.
With `C[C@@H]([C@@H](CC1CCC(c2ccccc2)CC1)C(=O)N[C@H](C(=O)Nc1nccs1)C(C)(C)C)N(O)C=O` (stereo partly drawn) the figure was 213 to 214 °C; with `COc1cc(OCCCN(C)Cc2ccc(OC)c(OC)c2)ccc1NC(=O)c1cccc2c(=O)c3cccc(F)c3[nH]c12`, 108 °C; with `CC1(O[Si](C)(C)C(C)(C)C)CN(c2ccc(N3C[C@H](CO)OC3=O)cc2F)C1`, 144 °C.
The figure for `CC(C(=O)O)S(=O)(=O)c1ccc2c(-c3ccccc3F)noc2c1Cl` (stereo not drawn) is 220 to 225 °C; for `N#CC(C#N)=C1Sc2nc3ccc(C#N)cc3nc2S1` it is 278 to 281 °C; for `Cc1cc(C)c2c(c1)OC(=O)C2c1ccc(C(C)C)cc1` (stereo not drawn) it is 76 to 77 °C.
In turn, `O=C(NO)C1(S(=O)(=O)c2ccc(OCc3ccccc3)cc2)CCN(Cc2ccccc2)CC1` had a melting point of 89 °C.
With `CC(=O)OCC(=O)C1(O)CCC2C3CCC4=CC(=O)C=CC4(C)C3CCC21C` (stereo not drawn) the figure was 214 °C; with `COc1cc(F)ccc1-c1ccc(S(=O)(=O)N2c3ccccc3CC2C(=O)NCCOc2ccc(C(=O)OC(C)(C)C)cc2)cc1` (stereo not drawn), 86 °C.
`CN(C)c1ccc(N=Nc2ccccc2C(=O)NCCN)cc1` registered a melting point of 119 to 124 °C.
With `O=C(O)CCCn1c(=O)c2ccccc2n(CCCCN2CCC(OC(c3ccccc3)c3ccccc3)CC2)c1=O` the figure was 132 to 133 °C; with `CC1CCN(c2cc3nc(C(C)(C)C)sc3cc2[N+](=O)[O-])CC1`, 116 to 120 °C; with `Cc1nc(-c2ccc(OC(C)C)c([N+](=O)[O-])c2)sc1C(=O)O`, 211 to 213 °C.
`CC1(C)CCC(C)(C)c2cc(-c3cc(-c4ccc(C=O)cc4)ccc3-c3ccccc3)ccc21` showed a melting point of 120 to 122 °C.
With `CCc1ccccc1S(=O)(=O)N(OCCF)C(=O)n1nc(C)n(C2CC2)c1=O` the figure was 147 °C.
With `NS(=O)(=O)Oc1ccc(C(F)(F)F)cc1` the figure was 111 to 112 °C; with `COc1cccc(C(C(N)=O)(c2c(Cl)cncc2Cl)C2CCCC2)c1` (stereo not drawn), 106 to 107 °C; with `CC1(C)Cc2c(c(N3CCCC3)nc3sc4c(NCc5ccccn5)ncnc4c23)CO1`, 249 to 251 °C.
The figure for `Cc1ccc(N2CCN(Cc3n[nH]c4c(Cl)cccc34)CC2)cc1` is 187 to 188 °C; for `Cc1ccc2c(c1)CC(=O)N2` it is 168 °C; for `CC(C)(C)c1cc(CCc2ccccc2NC(=O)NCC(c2ccccc2)c2ccccc2)cc(C(C)(C)C)c1O` it is 179 °C.
On to `Cn1nc2cccc(O)c2c1S(N)(=O)=O`, for which the melting point fell in the range of 180 to 181 °C.
With `CCCCC1OC(=O)c2cc(NC(N)=S)ccc21` (stereo not drawn) the figure was 183 to 185 °C; with `CSc1ccnc(Oc2cc(C#N)cc(C#N)c2)n1`, 237 °C; with `C[C@H](CO)Nc1nc(SCc2ccno2)nc2[nH]c(=O)cnc12`, 191 to 194 °C.
The compound `CC(C)(Cc1ccccc1)C(NC(=O)c1ccc(Cl)cc1)NC(=N[N+](=O)[O-])Nc1cccnc1` (stereo not drawn) yielded a melting point of 205 to 207 °C.
The figure for `CCCCCCCC(=O)N(C)Cc1cccc(-c2ccc(C=CC(=O)O)o2)c1` is 96 to 98 °C; for `CCN(CC)c1ccc(C2(CNC(=O)Nc3c(C(C)C)cccc3C(C)C)CCCC2)cc1` it is 138 to 140 °C; for `Fc1ccc(NC(=S)c2ccccn2)cc1Cn1ccnc1` it is 154 to 156 °C.
